From patent publication US7833939B2, “Herbicide compositions” (Kumiai Chemical Industry Co., Ltd., priority 2002, dated 2010)

How the values were obtained:
[1] = system: corn; assay: Herbicidal effect by upland field soil treatment (Application Example 2): phytotoxicity to corn; format: in vivo; details: 30th day from treatment
Procedure: (§1) Test for Herbicidal Effect by Upland Field Soil Treatment
(§2) An upland field soil was filled in a plastic pot of 11 cm each of length, width and depth. Seeds of corn and velvetleaf (Abutilon theophrasti Medic) were sowed, followed by covering with the same soil. The wettable powder produced in accordance with Formulation 1 was weighed so as to provide active ingredients in a predetermined amount, and was diluted with water and sprayed uniformly on the soil surface using a small sprayer, in an amount of 100 liters per […]. Then, growing was made in a greenhouse, and the herbicidal effect of each wettable powder was examined at the 30th day from the treatment in accordance with the standard shown in Table 15.

[2] = system: velvetleaf (Abutilon theophrasti Medic); assay: Herbicidal effect by upland field soil treatment (Application Example 2): velvetleaf; format: in vivo; details: 30th day from treatment
Procedure: as §1, §2

[3] = system: common lambsquarters (Chenopodium album L.); assay: Herbicidal effect by upland field soil treatment (Application Example 1): common lambsquarters; format: in vivo; details: 30th day from treatment
Procedure: as §1
as §2, with “corn, green foxtail (Setaria viridis)” for “corn”, “common lambsquarters (Chenopodium album L.)” for “velvetleaf (Abutilon theophrasti Medic)”

[4] = system: corn; assay: Herbicidal effect by upland field soil treatment (Application Example 1): phytotoxicity to corn; format: in vivo; details: 30th day from treatment
Procedure: as §1
as §2, with “corn, green foxtail (Setaria viridis)” for “corn”, “common lambsquarters (Chenopodium album L.)” for “velvetleaf (Abutilon theophrasti Medic)”

[5] = system: green foxtail (Setaria viridis); assay: Herbicidal effect by upland field soil treatment (Application Example 1): green foxtail; format: in vivo; details: 30th day from treatment
Procedure: as §1
as §2, with “corn, green foxtail (Setaria viridis)” for “corn”, “common lambsquarters (Chenopodium album L.)” for “velvetleaf (Abutilon theophrasti Medic)”

[6] = 32 g a.i./ha, upland field soil treatment
[7] = 16 g a.i./ha, upland field soil treatment
[8] = 16 g a.i./ha, soil surface spray of wettable powder, index of Table 15

Row | SMILES | Herbicidal effect Common lambsquarter (Chenopodium album L.) [3, 6] | Herbicidal effect Corn [4, 6] | Herbicidal effect Green foxtail (Sataria viridis) [5, 6] | melting point | Herbicidal effect Common lambsquarter (Chenopodium album L.) [3, 7] | Herbicidal effect Corn [4, 7] | Herbicidal effect Green foxtail (Sataria viridis) [5, 7] | further results
1 | CCNc1nc(Cl)nc(NC(C)C)n1 [Atrazine] |  |  |  |  |  |  |  | Corn ([1]; 125 g a.i./ha): 0 (Herbicidal effect or phytotoxicity of from 0 to 9%); Velvetleaf (Abutilon theophrasti Medic) ([2]; 125 g a.i./ha): 1 (Herbicidal effect or phytotoxicity of from 10 to 19%)
2 | CCS(=O)(=O)c1c(CS(=O)(=O)C2=NOC(C)(C)C2)c(C(F)(F)F)nn1-c1ccccc1 [Compound 3-0004, 5,5-dimethyl-3-(5-ethylsulfonyl-1-phenyl-3-trifluoromethyl-1H-pyrazol-4-ylmethylsulfonyl)-2-isoxazoline] | 2 (Herbicidal effect or phytotoxicity of from 20 to 29%) | 0 (Herbicidal effect or phytotoxicity of from 0 to 9%) | 3 (Herbicidal effect or phytotoxicity of from 30 to 39%) | 158 to 160 °C |  |  |  | 
3 | CN(C)c1c(CS(=O)(=O)C2=NOC(C)(C)C2)c(C(F)(F)F)nn1-c1ccccc1 [Compound 3-0005, 5,5-dimethyl-3-(5-dimethylamino-1-phenyl-3-trifluoromethyl-1H-pyrazol-4-ylmethylsulfonyl)-2-isoxazoline] | 2 (Herbicidal effect or phytotoxicity of from 20 to 29%) | 0 (Herbicidal effect or phytotoxicity of from 0 to 9%) | 2 (Herbicidal effect or phytotoxicity of from 20 to 29%) | 150 to 151 °C |  |  |  | 
4 | CC1(C)CC(S(=O)(=O)Cc2c(C(F)(F)F)nn(C(F)F)c2Cl)=NO1 [Compound 3-0010, 3-(5-chloro-1-difluoromethyl-3-trifluoromethyl-1H-pyrazol-4-ylmethylsulfonyl)-5,5-dimethyl-2-isoxazoline] |  |  |  | 126 to 127 °C | 2 (Herbicidal effect or phytotoxicity of from 20 to 29%) | 0 (Herbicidal effect or phytotoxicity of from 0 to 9%) | 2 (Herbicidal effect or phytotoxicity of from 20 to 29%) | 
5 | CC1(C)CC(S(=O)(=O)Cc2c(Cl)nn(C(F)F)c2C(F)(F)F)=NO1 [Compound 3-0011, 3-(3-chloro-1-difluoromethyl-5-trifluoromethyl-1H-pyrazol-4-ylmethylsulfonyl)-5,5-dimethyl-2-isoxazoline] |  |  |  | 136 to 137 °C | 2 (Herbicidal effect or phytotoxicity of from 20 to 29%) | 0 (Herbicidal effect or phytotoxicity of from 0 to 9%) | 3 (Herbicidal effect or phytotoxicity of from 30 to 39%) | 
6 | CCOc1nn(C)c(C(F)(F)F)c1CS(=O)(=O)C1=NOC(C)(C)C1 [Compound 3-0012, 5,5-dimethyl-3-(3-ethoxy-1-methyl-5-trifluoromethyl-1H-pyrazol-4-ylmethylsulfonyl)-2-isoxazoline] |  |  |  | 124 to 125 °C | 1 (Herbicidal effect or phytotoxicity of from 10 to 19%) | 0 (Herbicidal effect or phytotoxicity of from 0 to 9%) | 2 (Herbicidal effect or phytotoxicity of from 20 to 29%) | 
7 | COc1c(CS(=O)(=O)C2=NOC(C)(C)C2)c(C(F)(F)F)nn1C [Compound 3-0013, 5,5-dimethyl-3-(5-methoxy-1-methyl-3-trifluoromethyl-1H-pyrazol-4-ylmethylsulfonyl)-2-isoxazoline] |  |  |  | 113 to 114 °C | 2 (Herbicidal effect or phytotoxicity of from 20 to 29%) | 0 (Herbicidal effect or phytotoxicity of from 0 to 9%) | 2 (Herbicidal effect or phytotoxicity of from 20 to 29%) | 
8 | Cn1nc(C(F)(F)F)c(CS(=O)(=O)C2=NOC(C)(C)C2)c1Oc1ccccc1Cl [Compound 3-0014, 3-(5-(2-chlorophenoxy)-1-methyl-3-trifluoromethyl-1H-pyrazol-4-ylmethylsulfonyl)-5,5-dimethyl-2-isoxazoline] | 2 (Herbicidal effect or phytotoxicity of from 20 to 29%) | 0 (Herbicidal effect or phytotoxicity of from 0 to 9%) | 2 (Herbicidal effect or phytotoxicity of from 20 to 29%) | 67 to 70 °C |  |  |  | 
9 | Cn1nc(C(F)(F)F)c(CS(=O)(=O)C2=NOC(C)(C)C2)c1OC1CCCC1 [Compound 3-0015, 3-(5-cyclopentyloxy-1-methyl-3-trifluoromethyl-1H-pyrazol-4-ylmethylsulfonyl)-5,5-dimethyl-2-isoxazoline] | 3 (Herbicidal effect or phytotoxicity of from 30 to 39%) | 0 (Herbicidal effect or phytotoxicity of from 0 to 9%) | 3 (Herbicidal effect or phytotoxicity of from 30 to 39%) | 113 to 114 °C |  |  |  | 
10 | Cn1nc(C(F)(F)F)c(CS(=O)(=O)C2=NOC(C)(C)C2)c1C#N [Compound 3-0016, 3-(5-cyano-1-methyl-3-trifluoromethyl-1H-pyrazol-4-ylmethylsulfonyl)-5,5-dimethyl-2-isoxazoline] |  |  |  | 105 to 108 °C | 3 (Herbicidal effect or phytotoxicity of from 30 to 39%) | 0 (Herbicidal effect or phytotoxicity of from 0 to 9%) | 3 (Herbicidal effect or phytotoxicity of from 30 to 39%) | 
11 | CCn1nc(Cl)c(CS(=O)(=O)C2=NOC(C)(C)C2)c1Cl [Compound 3-0017, 3-(3,5-dichloro-1-ethyl-1H-pyrazol-4-ylmethylsulfonyl)-5,5-dimethyl-2-isoxazoline] |  |  |  | 105 to 107 °C | 3 (Herbicidal effect or phytotoxicity of from 30 to 39%) | 0 (Herbicidal effect or phytotoxicity of from 0 to 9%) | 3 (Herbicidal effect or phytotoxicity of from 30 to 39%) | 
12 | Cn1nc(C(F)F)c(CS(=O)(=O)C2=NOC(C)(C)C2)c1Cl [Compound 3-0018, 3-(5-chloro-3-difluoromethyl-1-methyl-1H-pyrazol-4-ylmethylsulfonyl)-5,5-dimethyl-2-isoxazoline] |  |  |  | 78 to 79 °C | 3 (Herbicidal effect or phytotoxicity of from 30 to 39%) | 0 (Herbicidal effect or phytotoxicity of from 0 to 9%) | 3 (Herbicidal effect or phytotoxicity of from 30 to 39%) | 
13 | Cn1nc(C(F)(F)F)c(CS(=O)(=O)C2=NOC(C)(C)C2)c1Cl [Compound 3-0039, 3-(5-chloro-1-methyl-3-trifluoromethylpyrazol-4-ylmethanesulfonyl)-5,5-dimethyl-2-isoxazoline] |  |  |  | 115 to 116 °C |  |  |  | Herbicidal effect Common lambsquarter (Chenopodium album L.) [3, 8]: 3 (Herbicidal effect or phytotoxicity of from 30 to 39%); Herbicidal effect Corn [4, 8]: 0 (Herbicidal effect or phytotoxicity of from 0 to 9%); Herbicidal effect Green foxtail (Sataria viridis) [5, 8]: 3 (Herbicidal effect or phytotoxicity of from 30 to 39%)
14 | Cn1nc(C(F)(F)F)c(CS(=O)(=O)C2=NOC(C)(C)C2)c1OC(F)F [Compound 3-188] |  |  |  |  |  |  |  | Corn ([1]; 16 g a.i./ha): 0 (Herbicidal effect or phytotoxicity of from 0 to 9%); Corn ([1]; 32 g a.i./ha): 0 (Herbicidal effect or phytotoxicity of from 0 to 9%); Velvetleaf (Abutilon theophrasti Medic) ([2]; 16 g a.i./ha): 2 (Herbicidal effect or phytotoxicity of from 20 to 29%); Velvetleaf (Abutilon theophrasti Medic) ([2]; 32 g a.i./ha): 2 (Herbicidal effect or phytotoxicity of from 20 to 29%)
15 | CCn1nc(C(F)(F)F)c(CS(=O)(=O)C2=NOC(C)(C)C2)c1OC(F)F [Compound 3-0190, 3-(5-difluoromethoxy-1-ethyl-3-trifluoromethyl-1H-pyrazol-4-ylmethanesulfonyl)-5,5-dimethyl-2-isoxazoline] |  |  |  | 98 to 100 °C |  |  |  | Herbicidal effect Common lambsquarter (Chenopodium album L.) [3, 8]: 1 (Herbicidal effect or phytotoxicity of from 10 to 19%); Herbicidal effect Corn [4, 8]: 0 (Herbicidal effect or phytotoxicity of from 0 to 9%); Herbicidal effect Green foxtail (Sataria viridis) [5, 8]: 3 (Herbicidal effect or phytotoxicity of from 30 to 39%)
16 | Cc1onc(C(F)(F)F)c1CS(=O)(=O)C1=NOC(C)(C)C1 [Compound 4-0001, 5,5-dimethyl-3-(5-methyl-3-trifluoromethylisoxazol-4-ylmethylsulfonyl)-2-isoxazoline] | 1 (Herbicidal effect or phytotoxicity of from 10 to 19%) | 0 (Herbicidal effect or phytotoxicity of from 0 to 9%) | 2 (Herbicidal effect or phytotoxicity of from 20 to 29%) | 135 to 136 °C |  |  |  | 
